According to patent publication EP0435826A1, “Intravenous solutions for epilepsy” (CIBA-GEIGY AG, priority 1989, dated 1991):
Values belong to the molecule of their own block, whether it stands above or below them.

Experiments:
[1] = test system: Tonische Konvulsionen der Hinterextremitäten; test: Maximal electroshock test in rats (Elektroschock Test an Ratten); type: in vivo; conditions: for ED50: Rattus norvegicus, read-out: Schutz vor dem maximalen Elektroschock ED50
From the text: (§1) Beispiel 5: Die akute Schutzwirkung von Carbamazepin und Oxcarbazepin nach intravenöser Verabreichung im Vergleich zur oralen wurde mit Hilfe des maximalen Elektroschocks ermittelt. Die folgenden Methoden wurden verwendet:
-Elektroschock Test an Ratten: Tonische Konvulsionen der Hinterextremitäten wurden durch Verabreichung eines Wechselstroms von 50 Hz und 36 mA während 0,63 Sekunden mit Hilfe von Cornealelektroden ausgelöst. Es wurden 10 Ratten pro Dosis und Zeiteinheit verwendet; eine Gruppe diente als Kontrolle. Die Anzahl der Ratten, die keine tonische Konvulsionen der Hinterextremitäten aufwiesen, wurde für jede Gruppe bestimmt. Die ED₅₀ wurde mit Hilfe der Regressionsanalyse nach der Methode von Spearman und Kärber berechnet.
(§2) -Elektroschock Test an Mäusen: Tonische Konvulsionen der Hinterextremitäten wurden durch Verabreichung eines Wechselstromes von 50 Hz und 18 mA während 0,2 Sekunden mittels Cornealelektroden ausgelöst. Für jede Dosis und Zeiteinheit wurden 10 Mäuse verwendet; eine Gruppe diente als Kontrolle. Die Anzahl der Mäuse, die keine tonische Konvulsionen der Hinterextremitäten zeigte, wurde für jede Gruppe bestimmt. Die ED₅₀ wurde mit Hilfe der Regressionsanalyse nach der Methode von Spearman und Kärber bestimmt. Die Injektionsvolumina für i.v. Verabreichung sind 5 ml/kg bei Mäusen und 1 ml/kg bei Ratten.
[…] Die ED₅₀-Werte wurden durch Regressionsanalyse aus drei verschiedenen Dosen (10 Ratten pro Dosis) berechnet.

[2] = test system: Tonische Konvulsionen der Hinterextremitäten; test: Maximal electroshock test in mice (Elektroschock Test an Mäusen); type: in vivo; conditions: Mäuse; for ED50: Mus musculus, read-out: Schutz vor dem maximalen Elektroschock ED50
From the text: as §1, §2

[3] = Solubility and properties of aqueous Hydroxypropyl-γ-cyclodextrin injection solutions; conditions: 22°C, in 40%-iger wässriger Lösung von Hydroxypropyl-γ-cyclodextrin
Description: In 100 ml dieser Lösung werden 1500 mg Carbamazepin durch Rühren bei Raumtemperatur (= 20°C) gelöst.
In 100 ml dieser Lösung werden 400,0 mg fein gemahlenes Oxcarbazepin durch Rühren bei 22°C gelöst.

[4] = iv, 5 min, intravenös, 5 min before shock
[5] = iv, 0.25 h, intravenös, 15 min before shock
[6] = po, 5 min, oral (suspension in Methocel®), 5 min
[7] = po, 0.5 h, oral (suspension in Methocel®), 30 min
[8] = po, 1 h, oral (suspension in Methocel®), 60 min
[9] = iv, 2.5 min, intravenös, 2,5 min
[10] = po, 2 h, oral (suspension in Methocel®), 120 min
[11] = po, 0.25 h, oral (suspension in Methocel®), 15 min

Compound: NC(=O)N1c2ccccc2C=Cc2ccccc21 [Carbamazepin, 5H-Dibenz[b,f]azepin-5-carboxamid]
- ED50 [1, 4]: 2.5 mg/kg
- ED50 [1, 5]: 2.5 mg/kg
- ED50 ([1]; iv, 0.5 h, intravenös, 30 min): 2 mg/kg
- ED50 ([1]; iv, 1 h, intravenös, 60 min): 3.1 mg/kg
- ED50 ([1]; iv, 2 h, intravenös, 120 min): 4.3 mg/kg
- ED50 ([1]; po, 2.5 min, oral (suspension in Methocel®), 2,5 min): 60 mg/kg
- ED50 [1, 6]: 60 mg/kg
- ED50 [1, 7]: 9.6 mg/kg
- ED50 [1, 8]: 10 mg/kg
- ED50 [2, 9]: 2.9 mg/kg
- ED50 ([2]; iv, 5 min, intravenös, 5 min): 2.6 mg/kg
- ED50 ([2]; iv, 0.25 h, intravenös, 15 min): 4.7 mg/kg
- ED50 ([2]; iv, 0.5 h, intravenös, 30 min): 6.8 mg/kg
- ED50 ([2]; iv, 1 h, intravenös, 60 min): 6.5 mg/kg
- ED50 ([2]; iv, 2 h, intravenös, 120 min): 17.3 mg/kg
- ED50 [2, 8]: 13 mg/kg
- ED50 [2, 10]: 27 mg/kg
- Schutz vor dem maximalen Elektroschock ([2]; oral (suspension in Methocel®), 2,5 min, bei 60 mg/kg): 10 % bei 60 mg/kg

- Löslichkeit [3]: 37 mg in 10,0 ml
Compound: NC(=O)N1c2ccccc2CC(=O)c2ccccc21 [Oxcarbazepin, 10,11-Dihydro-10-oxo-5-dibenz[b,f]-acepin-5-carboxamid]
- ED50 [1, 4]: 3.44 mg/kg
- ED50 [1, 5]: 2.5 mg/kg
- ED50 ([1]; iv, 0.5 h, intravenös, 30 min): 3.44 mg/kg
- ED50 ([1]; iv, 1 h, intravenös, 60 min): 4.85 mg/kg
- ED50 ([1]; iv, 2 h, intravenös, 120 min): 5.7 mg/kg
- ED50 [1, 11]: 12.2 mg/kg
- ED50 [1, 7]: 12.2 mg/kg
- ED50 [1, 8]: 15.8 mg/kg
- ED50 [1, 10]: 16.1 mg/kg
- Schutz vor dem maximalen Elektroschock ED50 ([1]; intravenös, 15 min before shock, 15 min): 3,44 mg/kg
- Schutz vor dem maximalen Elektroschock ([1]; oral (suspension in Methocel®), 5 min, bei 30 mg/kg): 20 % bei 30 mg/kg
- ED50 [2, 9]: 4.35 mg/kg
- ED50 ([2]; iv, 5 min, intravenös, 5 min): 4.35 mg/kg
- ED50 ([2]; iv, 0.25 h, intravenös, 15 min): 5 mg/kg
- ED50 ([2]; iv, 0.5 h, intravenös, 30 min): 7.07 mg/kg
- ED50 ([2]; iv, 1 h, intravenös, 60 min): 10.7 mg/kg
- ED50 [2, 6]: 40.4 mg/kg
- ED50 [2, 11]: 14.5 mg/kg
- ED50 [2, 7]: 15.7 mg/kg
- ED50 [2, 8]: 17.8 mg/kg
- ED50 [2, 10]: 36.3 mg/kg
- Schutz vor dem maximalen Elektroschock ED50 ([2]; intravenös, 2,5 min, 2.5 min): 2,35 mg/kg
- Schutz vor dem maximalen Elektroschock ED50 ([2]; intravenös, 15 min): 5,00 mg/kg
- Schutz vor dem maximalen Elektroschock ED50 ([2]; intravenös, 60 min): 10,72 mg/kg
- Schutz vor dem maximalen Elektroschock ([2]; intravenös, 120 min, bei 20 mg/kg): 20 % bei 20 mg/kg
